In brackets after ≈: the same amount, converted by molar mass. Where two headings read alike, the source gives them in different places.
Experiments:
[1] = system: T. brucei brucei GUTat 3.1; test: In vitro anti-trypanosomal activity (Alamar Blue); type: cell-based, Trypanosoma brucei brucei; settings: for Selectivity Index (SI): (IC50 for MRC-5)/(IC50 for T. brucei brucei); for IC50: Trypanosoma brucei, read-out: IC50 anti-trypanosomal activity; for IC50 / IC50 anti-trypanosomal activity: 72 h
Description: With collections of the natural-product-inspired molecules in hand, in vitro anti-trypanosomal activities were evaluated by employing a GUTat 3.1 strain of T. brucei brucei (Table 1) according to the previously reported protocols (Supporting Information File 1). […] Thus, this preliminary assessment supports the idea that the collections of natural-product-inspired scaffolds could have high hit rates against biological screenings, even without having structural information about the biological targets and small-molecule modulators related to the targeted cellular functions. Further screening investigations of the synthetic collections prepared in the four-step process are currently underway in our laboratories.
Assay for in vitro anti-trypanosomal activity against T. brucei species According to a procedure previously used in [Toriizuka et al. Bioorg. Med. Chem. 2008, 16, 10182–10189.], Trypanosoma brucei brucei strain GUTat 3.1 (Glasgow University, Trypanozoon antigenic type 3.1) was generously donated from Dr. Y. Yabu (Nagoya City University). T. brucei brucei GUTat 3.1 strain was cultured in IMDM with 3.024 g/L NaHCO3, 100 μM hypoxanthine, 30 μM thymidine, 40 μM adenosine, 1.0 mM sodium pyruvate, 50 μM L-glutamine, 100 μM 2-mercaptoethanol, 50 U/mL of penicillin, and 50 μg/mL of streptomycin containing 10% heat-inactivated FBS at 37 °C, under 5.0% CO2–95% air, according to the protocol of [Yabu et al.
Southeast Asian J. Trop. Med. Public Health 1998, 29, 591]. In vitro antitrypanosomal activity of the test compounds was evaluated from a dose–response curve utilizing the fluorescent dye, Alamar Blue, according to the method of [Räz et al. Acta Trop. 1997, 68, 139 and Tasdemir et al.
Antimicrob. Agents Chemother. 2006, 50, 1352] with some modifications. Ninety-five microliters of trypanosome suspension ([…] trypanosomes/mL for GUTat 3.1 strain) of bloodstream forms was seeded into a 96-well microplate and 5.0 μL of test compound solution (dissolved in 5.0% dimethylsulfoxide: DMSO) was added. After incubating for 72 h at 37 °C under 5.0% CO2–95% air, 10 μL of Alamar Blue was added to each well. After further incubation for 3–6 h at 37 °C under 5.0% CO2–95% air, the microplate was measured at 528/20 nm excitation wavelength and 590/35 nm emission wavelength with an FLx800 fluorescent plate reader (Bio-Tek Instrument, Inc.Vermont, USA). Data were transferred into a graphic program (Excel) and the 50% inhibitory concentration (IC50) values were determined with fluorescent plate reader software (KC-4, […]
(§1) Cytotoxicity tests on MRC-5 cells
(§2) The human diploid embryonic cell line, MRC-5, was a generous gift from Dr. L. Maes (Tibotec NV, Mechelen, Belgium). Cytotoxicity of the test compound was measured by the colorimetric MTT assay [Mossman, T. J. Immunol. Methods 1983, 65, 55 and Otoguro, K. et al. ATLA:Alternatives to Laboratory Animals 1991, 19, 352] in 96-well microplates. In brief, 100 μL of MRC-5 cell suspension was added to 96-well microplates at 1 × 10^3 cells/well and the cells were cultured for 24 h. Then, 90 μL of standard culture medium (MEM + 10% FCS) with or without 10 μL of test compound solution that was dissolved in 25% ethanol or 5% DMSO was added to each well.
(§3) Further incubation was conducted at 37 °C under 5% CO2–95% air for 7 days and then 20 μL of MTT–PBS solution (5 mg/mL) was added to each well. The microplate was incubated at 37 °C for 4 h under 5% CO2–95% air. Then, the incubation medium was aspirated and 100 μL of DMSO was added to solubilize the MTT formazan product. After mixing, absorbance at 540 nm was measured with iEMS microplate reader MF. The IC50 value was estimated from the dose–response curve.

[2] = Cytotoxicity on MRC-5 cells (MTT assay); type: cell-based; settings: human, MRC-5 cells (human diploid embryonic cell line)
Description: as §1, §2, §3

[3] = T. brucei brucei GUTat 3.1 strain, 2.0–2.5 × 10^4 trypanosomes/mL
[4] = T. brucei brucei GUTat 3.1 strain

Row | IC50 [1, 3] [µg/mL] | IC50 anti-trypanosomal activity [1, 3] [µg/mL] | Compound | Selectivity Index (SI) [1] | IC50 [1] [µg/mL] | IC50 at 7 days [2] [µg/mL] | antitrypanosomal activity (in words) [1, 4]
1 | 0.00158 (≈ 0.00464 µM) |  | N=C(N)c1ccc(OCCCCCOc2ccc(C(=N)N)cc2)cc1 [pentamidine, reference compound] | 3600 |  | 5.71 (≈ 16.8 µM) | 
2 |  | >12.5 | CC(=O)C12CC3CN(C(C(=O)NC(C)(C)C)c4cn(S(=O)(=O)c5ccccc5[N+](=O)[O-])c5ccccc45)C(=O)C4(C)CCCN(C1=O)C34O2 (stereo not shown) [39a] |  |  |  | negligible activities
3 |  | 0.46 (≈ 0.665 µM) | CC(=O)C12CC3CN(C(C(=O)NC(C)(C)C)c4cn(S(=O)(=O)c5ccccc5[N+](=O)[O-])c5ccccc45)C(=O)C4(C)CCCN(C1=O)C34O2 (stereo not shown) [39b] | 8.7 |  | 4.02 (≈ 5.81 µM) | 
4 | > 12.5 |  | COc1ccc(CN2C(=O)[C@@]3(C)CCCN4C(=O)[C@]5(C(C)=O)O[C@@]43[C@@]3(c4ccccc4N(S(=O)(=O)c4ccccc4[N+](=O)[O-])[C@H]53)[C@H]2C(=O)NC(C)(C)C)cc1 (racemic) [25b] |  |  |  | negligible
5 | 5.9 (≈ 7.64 µM) |  | COc1ccc(CN2C(=O)[C@@]3(C)CCCN4C(=O)[C@]5(C(C)=O)O[C@@]43[C@@]3(c4ccccc4N(S(=O)(=O)c4ccccc4[N+](=O)[O-])[C@H]53)[C@@H]2C(=O)NC(C)(C)C)cc1 (racemic) [25a] | 4.1 |  | 24.5 (≈ 31.7 µM) | 
6 | > 12.5 |  | CC(=O)[C@@]12C[C@@H]3CN([C@H](C(=O)NC(C)(C)C)c4c[nH]c5ccccc45)C(=O)[C@@]4(C)CCCN(C1=O)[C@@]34O2 [39c] |  |  |  | substantial loss of the activities
7 | 5.89 (≈ 8.18 µM) |  | CC(=O)[C@]12O[C@]34[C@@H](CN([C@H](C(=O)NC(C)(C)C)c5cn(S(=O)(=O)c6ccccc6[N+](=O)[O-])c6ccccc56)C(=O)[C@@]3(C)CCCN4C1=O)C2(C)C [41b] | 5.9 |  | 34.6 (≈ 48.1 µM) | 

More lines, now with the values behind:

Row | Compound | IC50 [1, 3] [µg/mL] | IC50 anti-trypanosomal activity [1, 3] [µg/mL] | Selectivity Index (SI) [1] | IC50 [1] [µg/mL] | IC50 at 7 days [2] [µg/mL] | antitrypanosomal activity (in words) [1, 4]
8 | Cc1ccc(C(=O)Nc2ccc(S(=O)(=O)O)c3cc(S(=O)(=O)O)cc(S(=O)(=O)O)c23)cc1NC(=O)c1cccc(NC(=O)Nc2cccc(C(=O)Nc3cc(C(=O)Nc4ccc(S(=O)(=O)O)c5cc(S(=O)(=O)O)cc(S(=O)(=O)O)c45)ccc3C)c2)c1 [suramin, reference compound] |  |  | >63 | 1.58 (≈ 1.22 µM) | > 100 | 
9 | CC(=O)[C@@]12O[C@@]34N(CCC[C@]3(C)N([C@@H](CC(C)C)C(=O)NC(C)(C)C)C(=O)[C@]43c4ccccc4N(S(=O)(=O)c4ccccc4[N+](=O)[O-])[C@H]13)C2=O [63a] |  |  |  |  |  | insignificant activities
10 | CC(=O)C12OC34N(CCCC3(C)N(C(CC(C)C)C(=O)NC(C)(C)C)C(=O)C43c4ccccc4N(S(=O)(=O)c4ccccc4[N+](=O)[O-])C13)C2=O (stereo not shown) [63b] |  |  |  |  |  | insignificant activities
11 | CC(=O)[C@@]12O[C@@]34N(CCC[C@]3(C)C(=O)N([C@H](C(=O)NC(C)(C)C)c3cn(S(=O)(=O)c5ccccc5[N+](=O)[O-])c5ccccc35)C[C@]43c4ccccc4N(S(=O)(=O)c4ccccc4[N+](=O)[O-])[C@H]13)C2=O [30b] |  |  |  | > 12.5 |  | negligible
12 | NCCCC(N)(C(=O)O)C(F)F (stereo not shown) [eflornithine, reference compound] | 2.27 (≈ 12.5 µM) |  | >44 |  | > 100 | 

Source: publication PMC3388883, “Parallel and four-step synthesis of natural-product-inspired scaffolds through modular assembly and divergent cyclization” (Beilstein Journal of Organic Chemistry, 2012)
